Drawing on US20080249154A1, “Preventive and/or Therapeutic Agent For Disease In Which Mitochondrial Benzodiazephine Receptor Participates” (ONO PHARMACEUTICAL CO., LTD., priority 2003, published 2008), this text covers Ki for 1 molecule.

The experiment has as its target T1, MBR (mitochondrial benzodiazepine receptor) (Rattus norvegicus, UniProt P16257).
T1 construct: from tissue; host or cells: male Wistar rat whole brain with cerebellum removed, crude membrane pellet
The experiment in a line: Receptor binding experiment: [3H]PK11195 competition binding, rat brain membrane preparation. Particulars: [3H]PK11195 0.5 or 1 nmol/L, 1 hour at room temperature, calculated by Cheng and Prusoff formula from KD and IC50, read-out: Ki value (inhibition constant). As for the experimental part:
The affinity of the compounds in the present invention to MBR was determined using rat brain membrane preparation. In addition, the measurement in the present invention was improved the accuracy of measurement and the sensitivity of measurement for evaluating the compounds in the present invention as follows. After male Wister rats were decapitated to extirpate the whole brain and cerebellums were removed. They were homogenized in ice-cold 50 mmol/L Tris-HCL buffer solution (pH7.4), centrifuged and the obtained pellets were washed. The pellets resuspended and adjusted to about 1 mg/mL were used as rat brain membrane preparations for binding assay. The binding assay were experimented using [^3H]PK11195 as a MBR selective ligand. […]
To determine the amount of total binding in saturation binding experiment, membrane preparations, various concentrations of [^3H]PK11195, final concentration: 0.5 vol % dimethylsulfoxide (DMSO) and 50 mmol/L Tris-HCL buffer solution (pH7.4) were mixed (total volume 200 μL) and were incubated for 1 hour at room temperature. […] The filter was dried and then the radioactivity on the filter was measured by liquid scintillation counter. The data obtained by the binding experiments were Scatchard analyzed using analysis software, KELL (Ver.6, BIOSOFT) and the dissociation constant (KD value) was determined. […]

As usually defined, the Ki is the equilibrium dissociation constant of an inhibitor or competing ligand from its target.

In the case of `O=C(CCc1ccccc1)Nc1c2c(nn1-c1ccc(Cl)cc1)CSC2` [Example 8(8), N-[2-(4-chlorophenyl)-2,6-dihydro-4H-thieno[3,4-c]pyrazol-3-yl]-3-phenylpropanamide], the Ki is 99 nM.
